Reference: ChEMBL document CHEMBL1649069, “Discovery of a series of phosphonic acid-containing thiazoles and orally bioavailable diamide prodrugs that lower glucose in diabetic animals through inhibition of fructose-1,6-bisphosphatase” (J Med Chem, 2011)
Activity calls are given as the source filed them. The rule behind the calls is not given here.

Tests used:
Rattus norvegicus [1] = test: Antidiabetic activity in Sprague-Dawley rat assessed as decrease in glucose Cmax at 10 mg/kg, po; assay type: functional
[2] = target: T1, Fructose-1,6-bisphosphatase 1 (Homo sapiens, UniProt P09467)
T1 sequence (P09467 whole entry): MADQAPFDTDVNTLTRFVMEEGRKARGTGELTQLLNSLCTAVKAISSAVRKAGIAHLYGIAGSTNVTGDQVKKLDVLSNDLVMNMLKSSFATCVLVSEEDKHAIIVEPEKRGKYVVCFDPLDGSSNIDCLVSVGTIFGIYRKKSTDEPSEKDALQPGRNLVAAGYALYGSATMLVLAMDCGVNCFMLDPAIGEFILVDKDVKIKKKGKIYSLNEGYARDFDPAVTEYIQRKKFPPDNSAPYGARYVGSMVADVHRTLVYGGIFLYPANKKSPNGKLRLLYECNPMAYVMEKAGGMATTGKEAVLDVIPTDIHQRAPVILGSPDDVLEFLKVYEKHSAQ
Description: Inhibition of human liver FBP

Rattus norvegicus [3] = test: Antidiabetic activity in Sprague-Dawley rat assessed as decrease in glucose Cmax at 30 mg/kg
Rattus norvegicus [4] = test: Antidiabetic activity in Sprague-Dawley rat assessed as decrease in glucose Cmax at 10 mg/kg, iv; assay type: functional
[5] = Volume of distribution in Sprague-Dawley rat; assay type: ADME, organism-based; conditions: in vivo
[6] = Plasma protein binding in Sprague-Dawley rat; assay type: ADME, cell-free; conditions: read-out: PPB (converted)
[7] = Plasma protein binding in human; assay type: ADME, cell-free; conditions: read-out: PPB (converted)
[8] = Half life in Sprague-Dawley rat; assay type: ADME, organism-based; conditions: in vivo
[9] = Clearance in Sprague-Dawley rat; assay type: ADME, organism-based; conditions: in vivo
Rattus norvegicus [10] = test: (§1) Oral bioavailability in Sprague-Dawley rat; assay type: ADME, organism-based; conditions: in vivo
[11] = as §1; assay type: ADME, organism-based; conditions: Sprague-Dawley, in vivo
[12] = Oral bioavailability in dog; assay type: ADME, organism-based, Canis lupus familiaris; conditions: in vivo
[13] = Oral bioavailability in rat; assay type: ADME, organism-based; conditions: in vivo
Rattus norvegicus [14] = test: Antihyperglycemic activity in Zucker fa/fa rat assessed as reduction in glucose level at 0.4 % w/w administered as food mixture; assay type: functional, organism-based

CCOC(=O)CNP(=O)(Oc1ccccc1)c1ccc(-c2nc(N)sc2CC(C)C)o1 (stereo not drawn) gave an inhibition in vivo at 10 mg/kg (Rattus norvegicus [1]) of 51%.
CC(C)Cc1sc(-c2cccnc2)nc1-c1ccc(P(=O)(O)O)o1 showed an IC50 [2] of 5000 nM.
CC(C)Cc1sc(C(N)=O)nc1-c1ccc(P(=O)(O)O)o1 gave an IC50 [2] of 2750 nM.
CCSc1sc(N)nc1-c1ccc(P(=O)(O)O)o1 gave an IC50 [2] of 33 nM.
CC(C)Cc1sc(N)nc1-c1ccc(P2(=O)OCC[C@H](c3cccc(Cl)c3)O2)o1 (stereo partly drawn) gave an inhibition in vivo at 30 mg/kg (Rattus norvegicus [3]) of 53%.
In the case of CCCc1sc(N)nc1-c1cccc(P(=O)(O)O)c1, the IC50 [2] is reported as 250 nM and the inhibition in vivo at 10 mg/kg (Rattus norvegicus [4]) is reported as 0%.
CC(C)(C)Sc1sc(N)nc1-c1ccc(P(=O)(O)O)o1 gave an IC50 [2] of 24 nM.
Compound Nc1nc(-n2ccc(P(=O)(O)O)c2)c(-c2ccccc2)s1 has an IC50 [2] greater than 10000 nM.
C=Cc1nc(-c2ccc(P(=O)(O)O)o2)c(CC(C)C)s1 showed an IC50 [2] of 1200 nM.
For Nc1nc(-c2cccc(P(=O)(O)O)c2)cs1, the IC50 [2] was 1300 nM.
COC(=O)c1ccc(-c2sc(N)nc2-c2ccc(P(=O)(O)O)o2)cc1 showed an IC50 [2] of 14 nM and an inhibition in vivo at 10 mg/kg (Rattus norvegicus [4]) of 78%.
With CCOC(=O)OC(C)OP(=O)(OC(C)OC(=O)OCC)c1ccc(-c2nc(N)sc2CC(C)C)o1 (stereo not drawn) the inhibition in vivo at 10 mg/kg (Rattus norvegicus [1]) was 12%.
Nc1nc(-c2ccc(P(=O)(O)O)o2)c(-c2ccc(F)cc2)s1 gave an inhibition in vivo at 10 mg/kg (Rattus norvegicus [4]) of 60%.
In the case of CC(C)(C)c1ccc(-c2sc(N)nc2-c2ccc(P(=O)(O)O)o2)cc1, the inhibition in vivo at 10 mg/kg (Rattus norvegicus [4]) is reported as 6%.
With Nc1nc(-c2ccc(P(=O)(O)O)o2)c(I)s1 the IC50 [2] was 100 nM and the inhibition in vivo at 10 mg/kg (Rattus norvegicus [4]) was -2%.
For CC(C)Cc1sc(N)nc1-c1ccc(P(=O)(O)O)o1 [MB-05032], the Vd [5] was 0.18 L/kg, the fraction unbound [6] was 0.1 and the fraction unbound [7] was 0.07. The half-life [8] was 39 min, the clearance [9] was 4 mL/min/kg and the F (Rattus norvegicus [10]) was 4%. The inhibition in vivo at 10 mg/kg (Rattus norvegicus [4]) was 65%.
For Nc1nc(-c2ccc(P(=O)(O)O)o2)c(CC2CC2)s1, the IC50 [2] was 20 nM.
In the case of Nc1nc(-c2ccc(P(=O)(O)O)o2)c(-c2ccccc2)s1, the IC50 [2] is reported as 14 nM and the inhibition in vivo at 10 mg/kg (Rattus norvegicus [4]) is reported as 76%.
In the case of Cc1sc(N)nc1-c1ccc(P(=O)(O)O)o1, the IC50 [2] is reported as 120 nM.
Nc1nc(-c2ccc(P(=O)(O)O)o2)c(C(=O)OCc2ccccc2)s1 showed an inhibition in vivo at 10 mg/kg (Rattus norvegicus [4]) of 42%.
CSc1nc(-c2ccc(P(=O)(O)O)o2)c(CC(C)C)s1 gave an IC50 [2] of 890 nM.
For CCOC(=O)c1sc(N)nc1-c1ccc(P(=O)(O)O)o1, the inhibition in vivo at 10 mg/kg (Rattus norvegicus [4]) was 76%.
COc1cccc(-c2sc(N)nc2-c2ccc(P(=O)(O)O)o2)c1 gave an IC50 [2] of 21 nM and an inhibition in vivo at 10 mg/kg (Rattus norvegicus [4]) of 0%.
With Nc1nc(-c2ccc(P(=O)(O)O)o2)c(Cl)s1 the inhibition in vivo at 10 mg/kg (Rattus norvegicus [4]) was 17%.
Compound CCc1nc(-c2ccc(P(=O)(O)O)o2)c(CC(C)C)s1 has an IC50 [2] of 400 nM.
With Nc1nc(-c2ccc(P(=O)(O)O)o2)c(-c2ccco2)s1 the inhibition in vivo at 10 mg/kg (Rattus norvegicus [4]) was 21%.
Work on CCc1cc(F)c(N)c2nc(-c3ccc(P(=O)(O)O)o3)n(CC(C)C)c12 yielded a Vd [5] of 0.25 L/kg, a fraction unbound [6] of 0.01 and a fraction unbound [7] of 0.001. For the same compound, the half-life [8] was 45 min, the clearance [9] was 4.33 mL/min/kg and the bioavailability [11] was 2%.
Compound CSc1ccc(-c2sc(N)nc2-c2ccc(P(=O)(O)O)o2)cc1 has an IC50 [2] of 21 nM and an inhibition in vivo at 10 mg/kg (Rattus norvegicus [4]) of 72%.
Work on CCOC(=O)C(C)(C)NP(=O)(NC(C)(C)C(=O)OCC)c1ccc(-c2nc(N)sc2CC(C)C)o1 yielded an inhibition in vivo at 10 mg/kg (Rattus norvegicus [1]) of 45%.
For CC(C)Cc1sc(Br)nc1-c1ccc(P(=O)(O)O)o1, the inhibition in vivo at 10 mg/kg (Rattus norvegicus [4]) was 3%.
Compound Cc1nc(-c2ccc(P(=O)(O)O)o2)c(CC(C)C)s1 has an inhibition in vivo at 10 mg/kg (Rattus norvegicus [4]) of 55%.
With Nc1nc(-c2ccc(P(=O)(O)O)o2)c(-c2ccc(-c3ccccc3)cc2)s1 the inhibition in vivo at 10 mg/kg (Rattus norvegicus [4]) was 36%.
For CCOC(=O)[C@H](C)NP(=O)(Oc1ccccc1)c1ccc(-c2nc(N)sc2CC(C)C)o1 (stereo partly drawn), the inhibition in vivo at 30 mg/kg (Rattus norvegicus [3]) was 46%.
Work on CC(C)Cc1sc(CO)nc1-c1ccc(P(=O)(O)O)o1 yielded an IC50 [2] of 220 nM and an inhibition in vivo at 10 mg/kg (Rattus norvegicus [4]) of 8%.
For CC(C)Sc1sc(N)nc1-c1ccc(P(=O)(O)O)o1, the IC50 [2] was 24 nM and the inhibition in vivo at 10 mg/kg (Rattus norvegicus [4]) was 48%.
Nc1nc(-c2ccc(P(=O)(O)O)o2)c(-c2ccc(Cl)cc2)s1 gave an IC50 [2] of 13 nM and an inhibition in vivo at 10 mg/kg (Rattus norvegicus [4]) of 40%.
Work on CCCc1sc(N)nc1C(=O)OCP(=O)(O)O yielded an IC50 [2] of 50 nM and an inhibition in vivo at 10 mg/kg (Rattus norvegicus [4]) of 63%.
Compound CCOC(=O)[C@H](C)NP(=O)(N[C@@H](C)C(=O)OCC)c1ccc(-c2nc3c(N)c(F)cc(CC)c3n2CC(C)C)o1 has a bioavailability [12] greater than 10%, a bioavailability [13] greater than 10% and a bioavailability [11] of 5%.
Work on COc1ccccc1-c1sc(N)nc1-c1ccc(P(=O)(O)O)o1 yielded an inhibition in vivo at 10 mg/kg (Rattus norvegicus [4]) of 66%.
With CCCSc1sc(N)nc1-c1ccc(P(=O)(O)O)o1 the inhibition in vivo at 10 mg/kg (Rattus norvegicus [4]) was 82%.
For CCCc1sc(N)nc1-c1ccc(P(=O)(O)O)s1, the IC50 [2] was greater than 10000 nM.
Nc1nc(-c2ccc(P(=O)(O)O)o2)c(Cc2ccccc2)s1 gave an IC50 [2] of 150 nM.
In the case of Nc1nc(-c2ccc(P(=O)(O)O)o2)c(-c2ccc3ccccc3c2)s1, the IC50 [2] is reported as 12 nM and the inhibition in vivo at 10 mg/kg (Rattus norvegicus [4]) is reported as 20%.
For Nc1nc(C(=O)NCP(=O)(O)O)c(-c2cccs2)s1, the IC50 [2] was 950 nM.
For Cc1oc(-c2nc(N)sc2-c2ccccc2)nc1P(=O)(O)O, the IC50 [2] was 10000 nM.
In the case of Nc1nc(-c2ccc(P(=O)(O)O)o2)c(N2CCOCC2)s1, the IC50 [2] is reported as 16 nM and the inhibition in vivo at 10 mg/kg (Rattus norvegicus [4]) is reported as 75%.
Work on Nc1nc(-c2ccc(P(=O)(O)O)o2)c(Sc2ccccc2)s1 yielded an IC50 [2] of 300 nM.
For CCOC(=O)[C@H](C)NP(=O)(N[C@@H](C)C(=O)OCC)c1ccc(-c2nc(N)sc2CC(C)C)o1, the inhibition in vivo at 10 mg/kg (Rattus norvegicus [1]) was 59% and the inhibition (Rattus norvegicus [14]) was “Active”.
CS(=O)(=O)c1ccc(-c2sc(N)nc2-c2ccc(P(=O)(O)O)o2)cc1 gave an IC50 [2] of 41 nM and an inhibition in vivo at 10 mg/kg (Rattus norvegicus [4]) of 78%.
Nc1nc(-c2ccc(F)c(P(=O)(O)O)c2)c(-c2ccccc2)s1 showed an inhibition in vivo at 10 mg/kg (Rattus norvegicus [4]) of 0%.
For CCOC(=O)OCOP(=O)(OCOC(=O)OCC)c1ccc(-c2nc(N)sc2CC(C)C)o1, the inhibition in vivo at 30 mg/kg (Rattus norvegicus [3]) was 40%.
In the case of Nc1nc(-c2ccc(P(=O)(O)O)o2)c(C2CCC2)s1, the IC50 [2] is reported as 19 nM.
With CC(C)Cn1c(-c2ccc(P(=O)(O)O)o2)nc2c(N)ncnc21 the IC50 [2] was 800 nM.
Work on CC(=O)c1ccc(-c2sc(N)nc2-c2ccc(P(=O)(O)O)o2)cc1 yielded an IC50 [2] of 32 nM and an inhibition in vivo at 10 mg/kg (Rattus norvegicus [4]) of 43%.
In the case of COc1ccc(-c2sc(N)nc2-c2ccc(P(=O)(O)O)o2)cc1, the IC50 [2] is reported as 22 nM and the inhibition in vivo at 10 mg/kg (Rattus norvegicus [4]) is reported as 63%.
In the case of CC(C)Cc1sc(Cl)nc1-c1ccc(P(=O)(O)O)o1, the IC50 [2] is reported as 180 nM.
With Nc1nc(-c2ccc(P(=O)(O)O)o2)c(Br)s1 the inhibition in vivo at 10 mg/kg (Rattus norvegicus [4]) was 20%.
In the case of Nc1nc(-c2ccc(P(=O)(O)O)o2)c(-c2cccs2)s1, the inhibition in vivo at 10 mg/kg (Rattus norvegicus [4]) is reported as 24%.
Work on CC(C)Cc1sc(C#N)nc1-c1ccc(P(=O)(O)O)o1 yielded an IC50 [2] of 2000 nM.
